From US7678787B2, “Pyrrolobenzodiazepine pyridine carboxamides and derivatives as follicle-stimulating hormone receptor antagonists” (Wyeth, priority 2005, dated 2010)

Key:
[1] = target: T1, human FSH receptor (Homo sapiens, UniProt P23945); assay: FSH receptor-dependent CRE-luciferase reporter gene assay (CHO FSH-R 6CRE-Luc cells); type: cell-based; settings: 2-dose format; test concentration in parentheses = 30 μM; percent inhibition of response to EC50 of FSH; read-out: CRE % inhibition
T1 construct: host or cells: CHO-K1 (CHO FSH-R 6CRE-Luc, 1D7 cells)
T1 sequence (P23945 18-695): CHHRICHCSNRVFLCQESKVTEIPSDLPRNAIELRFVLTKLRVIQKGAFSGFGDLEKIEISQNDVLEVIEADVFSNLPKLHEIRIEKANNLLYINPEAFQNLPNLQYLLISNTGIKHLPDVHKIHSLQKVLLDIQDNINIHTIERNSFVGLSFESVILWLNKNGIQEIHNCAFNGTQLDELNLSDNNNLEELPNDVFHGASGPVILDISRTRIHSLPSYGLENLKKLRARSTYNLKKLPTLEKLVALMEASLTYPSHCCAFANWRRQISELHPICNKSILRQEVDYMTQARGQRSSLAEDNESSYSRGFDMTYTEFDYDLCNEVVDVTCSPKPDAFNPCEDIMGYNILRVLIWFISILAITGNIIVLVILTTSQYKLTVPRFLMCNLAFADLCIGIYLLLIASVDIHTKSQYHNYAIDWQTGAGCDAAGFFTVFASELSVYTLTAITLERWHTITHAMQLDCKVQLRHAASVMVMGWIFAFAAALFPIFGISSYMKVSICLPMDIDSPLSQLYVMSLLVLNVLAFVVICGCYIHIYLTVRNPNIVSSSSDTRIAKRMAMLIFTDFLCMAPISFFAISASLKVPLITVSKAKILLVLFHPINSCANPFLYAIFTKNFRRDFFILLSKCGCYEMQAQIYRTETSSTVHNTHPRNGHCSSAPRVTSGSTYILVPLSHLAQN

melting point [°C] | inhibition at 30 µM [1] [%] | SMILES
138 to 140 | 45 | O=C(NCc1cccnc1)c1ccc2n1Cc1ccccc1N(C(=O)c1cc(F)cc(F)c1)C2 [Example 95]
142 to 143 | 18 | O=C(NCc1cccnc1)c1ccc2n1Cc1ccccc1N(C(=O)c1ccccc1F)C2 [Example 97]
172 to 175 | 21 | O=C(NCc1cccnc1)c1ccc2n1Cc1ccccc1N(C(=O)c1ccc(-c3cncnc3)cc1)C2 [Example 106]
85 | 34 | CC(C)(C)c1ccc(OCC(=O)N2Cc3ccc(C(=O)NCc4cccnc4)n3Cc3ccccc32)cc1 [Example 135]
83 | 16 | CC(Oc1ccccc1)C(=O)N1Cc2ccc(C(=O)NCc3cccnc3)n2Cc2ccccc21 (stereo not drawn) [Example 137]
153 to 155 | 48 | O=C(NCc1cccnc1)c1ccc2n1Cc1ccccc1N(C(=O)Cc1ccc(-c3ccccc3)cc1)C2 [Example 143]
175 | 35 | O=C(NCc1cccnc1)c1ccc2n1Cc1ccccc1N(C(=O)/C=C/c1ccccc1)C2 [Example 144]
188 | 40 | O=C(NCc1cccnc1)c1ccc2n1Cc1ccccc1N(C(=O)c1cccc3ccccc13)C2 [Example 145]
103 to 107 | 35 | CC(C)(C)CC(=O)N1Cc2ccc(C(=O)NCc3cccnc3)n2Cc2ccccc21 [Example 148]
